The record followed here is publication PMC3136501 (PLoS ONE, 2011).

The target in this experiment is T1, human OCT3 (Homo sapiens, UniProt O75751).
T1 sequence (O75751 1-556): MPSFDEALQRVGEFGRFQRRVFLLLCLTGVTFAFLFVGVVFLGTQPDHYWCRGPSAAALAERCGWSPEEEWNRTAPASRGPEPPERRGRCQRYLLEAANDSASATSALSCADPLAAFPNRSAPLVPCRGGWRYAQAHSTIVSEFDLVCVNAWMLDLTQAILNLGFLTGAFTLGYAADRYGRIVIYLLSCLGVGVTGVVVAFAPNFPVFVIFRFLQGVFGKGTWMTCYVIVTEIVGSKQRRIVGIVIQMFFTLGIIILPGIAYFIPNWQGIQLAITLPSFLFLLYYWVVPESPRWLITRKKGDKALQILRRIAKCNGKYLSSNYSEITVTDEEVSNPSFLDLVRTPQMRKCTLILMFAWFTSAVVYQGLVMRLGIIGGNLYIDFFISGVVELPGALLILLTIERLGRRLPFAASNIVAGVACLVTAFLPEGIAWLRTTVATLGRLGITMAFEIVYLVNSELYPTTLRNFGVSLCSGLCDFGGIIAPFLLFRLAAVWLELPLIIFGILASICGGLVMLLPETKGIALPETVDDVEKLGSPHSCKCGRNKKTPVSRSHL
Description: Inhibition of OCT3-mediated metformin uptake in stably transfected HEK cells. Format: cell-based. The settings on record: for IC50: 5 µM [14C]metformin uptake, 5 min, HEK-OCT3, means ± SE of 3 experiments; for OCT3-mediated metformin uptake at low PPI concentrations: low concentrations of PPI, Figure 3. How it is done:
SLC22A1 cDNA and SLC22A2 cDNA had been PCR-amplified from human liver and kidney, respectively, as reported elsewhere and cDNAs were provided by the German Cancer Research Center; the study and the use of the tissue were approved by the institutional review board of the German Cancer Center, Heidelberg, Germany. Since the data were analyzed anonymously, and tissues were left-over samples from diagnostic procedures, written informed consent had not been required and obtained. IRB specifically waived the need for consent due to the fact the human tissue material used was fully anonymized. SLC22A3 cDNA was amplified using SLC22A3-TrueClone (Origene, Rockville, MD, USA) as the template. SLC22A1 cDNA was cloned into the expression vector pcDNA3.1/Hygro(-) (Invitrogen, Darmstadt, Germany), SLC22A2 and SLC22A3 cDNA into pcDNA3.1(+) (Invitrogen). Each transporter cDNA was sequenced and the respective deduced amino acid sequence was identical to the published reference protein sequence (OCT1: NP_003048.1; OCT2: NP_003049.2; OCT3: NP_068812.1). The human embryonic kidney 293 (HEK) cell line was obtained from the American Type Culture Collection. HEK cells were grown in DMEM (Sigma) supplemented with 10% fetal bovine serum (Sigma), 100 U⋅ml^−1 penicillin, and 100 µg⋅ml^−1 streptomycin (Lonza, Basel, Switzerland) at 37°C and 5% CO2. HEK cells were transfected with Metafectene Pro (Biontex, München, Germany). Selection of clones stably expressing OCT1 was carried out with 0.5 mg⋅ml^−1 hygromycin as described. Similarly, clones stably expressing OCT2 or OCT3 were selected with 800 µg⋅ml^−1 G418. HEK cells stably transfected with the empty pcDNA3.1(+) vector served as controls (HEK-Co). Cells were incubated with 5 mM butyrate 24 h before use to increase protein levels of recombinant transporters.
HEK cells (400000 cells/well) were seeded into 24-well cell culture plates (Greiner Bio-One, Frickenhausen, Germany) and grown for 48 h. Cell adherence was improved by coating plates with poly-L-lysine (Biochrom AG, Berlin, Germany) prior to cell plating. All uptake studies were carried out at 37°C as described. For uptake measurements, cells were firstly washed with uptake buffer (145 mM NaCl, 5 mM hydroxyethylpiperazine ethanesulfonic acid, 3 mM KCl, 1 mM CaCl2, 0.5 mM MgCl2, 5 mM glucose, pH 7.4, [46]) prewarmed to 37°C. […] Uptake was stopped at indicated time points by removing the uptake buffer and immediately washing the cells 3 times with ice-cold uptake buffer. Cells were lysed with 0.2% SDS and intracellular radioactivity was determined by liquid scintillation counting (Hidex 300SL TDCR liquid scintillation counter, Turku, Finland). For measuring inhibition of OCT-mediated metformin uptake by PPIs, 5 µM [^14C]metformin uptake was measured in the presence of different PPI concentrations and stopped after 5 min (OCT1, OCT3) or 5 sec (OCT2).
OCT-specific metformin uptake was obtained by subtracting metformin uptake in the presence of 2 mM unlabeled 1-methyl-4-phenylpyridinium (MPP) from that in its absence. […] OCT-specific metformin uptake in the presence of a PPI was then calculated as percentage of that in the absence of the respective PPI (100% uninhibited). For each PPI concentration, 3 individual experiments each with 3 parallel measurements were performed. Apparent IC50 values for inhibition of metformin uptake by PPIs were calculated for each individual experiment by fitting the values to the Hill equation using GraphPad Prism 4 (GraphPad Software Inc., La Jolla, CA, USA). Values in Table 1 are given as the means ± SE of the 3 individual experiments.

Regarding `Cc1c(OCC(F)(F)F)ccnc1C[S+]([O-])c1nc2ccccc2[nH]1` (stereo not drawn) [Lansoprazole], half-maximal inhibition (IC50) was put at 3.1 ± 1.3 µM. For the compound `C[n+]1ccc(-c2ccccc2)cc1` [MPP, 1-methyl-4-phenylpyridinium], the “Metformin uptake by HEK-OCT3 in the presence of MPP” value (5 µM metformin, 2 mM unlabeled MPP) is “almost completely absent”. Regarding `COc1ccc2[nH]c([S+]([O-])Cc3ncc(C)c(OC)c3C)nc2c1` (stereo not drawn) [Omeprazole], the IC50 – broadly, the concentration needed to halve the response being measured – was 22 ± 2.2 µM. With `COc1ccnc(C[S+]([O-])c2nc3ccc(OC(F)F)cc3[nH]2)c1OC` (stereo not drawn) [Pantoprazole], the IC50 worked out at 22.9 ± 5.2 µM and the “OCT3-mediated metformin uptake at low PPI concentrations” value (shortened to “OCT3-mediated metformin uptake”) is given as “activated”. Turning to `COCCCOc1ccnc(C[S+]([O-])c2nc3ccccc3[nH]2)c1C` (stereo not drawn) [Rabeprazole], the IC50 is 3 ± 0.8 µM and the “OCT3-mediated metformin uptake” value is reported as “activated”. For `COc1ccc2[nH]c([S+]([O-])Cc3ncc(C)c(OC)c3C)nc2n1` (stereo not drawn) [Tenatoprazole], half-maximal inhibition (IC50) required 14.7 ± 2.4 µM and the “OCT3-mediated metformin uptake” value is “activated”.
